Experimental data from patent US11634443B2, “Treprostinil prodrugs” (United Therapeutics Corporation, priority 2019, dated 2023).
Several values for one entry are separate records, joined by “and”; a condition that tells them apart may be missing. Equal entries are not always repeated. Entries after “also recorded” stand apart in the source; their conditions may differ. Where two headings read alike, the source gives them in different places.

Legend:
[1] = Stability and formation of treprostinil in dog cryopreserved hepatocytes
Protocol: (§1) Mixed-gender human cryopreserved hepatocytes, male Sprague-Dawley rat cryopreserved hepatocytes, and male Beagle dog cryopreserved hepatocytes were purchased from XenoTech. The hepatocytes were thawed and prepared according to the vendor's instructions, pooled into Krebs Henseleit buffer (KHB, pH 7.4), and kept on ice prior to the experiments. […] The final DMSO content in the incubation mixture was ≤0.1%. […] Aliquots of the test article were withdrawn (n=1) at 0, 15, 30, 60, and 120 minutes. […] Aliquots of 7-HC were withdrawn (n=1) at 0 and 15 minutes. The reaction was immediately terminated by adding two volumes of ice-cold acetonitrile (ACN) to the test article samples and three volumes of ACN containing internal standard to the positive control samples.

[2] = Stability and formation of treprostinil in rat cryopreserved hepatocytes
Protocol: as §1

[3] = Stability and formation of treprostinil in human cryopreserved hepatocytes
Protocol: as §1

[4] = for Dose proportionality of mean treprostinil Cmax and AUC0-24hr: PO 1 to 50 mg/kg prodrug
[5] = Clinical signs and mortality after single oral gavage or IV bolus dose in rats; type: in vivo
Protocol: Animals received a single dose via oral gavage or intravenous (bolus) injection. The following parameters and end points were evaluated in this study: clinical signs and pharmacokinetic parameters. Single males in the oral 50 mg/kg prodrugs XVII and VI group were found dead on Day 2. No macroscopic findings were noted. All other animals survived to the scheduled euthanasia.
Animals were not removed from the cage during observations, unless necessary for identification or confirmation of possible findings.
The animals were removed from the cage, and a detailed clinical observation was performed on the day of animal selection. Cage side observations were performed at 1 to 2 hours post dose. Animals were weighed individually following receipt, on the day of randomization, and on each day of dosing (prior to dosing). Individual body weights are presented below.
All surviving animals were euthanized and discarded. A necropsy was conducted for animals that died on study, and specified tissues were saved.

[6] = target: T1, prostaglandin D2 (PGD2) receptor 1 (DP1) (Homo sapiens, UniProt Q13258); test: DP1 receptor cAMP assay (agonist mode); type: cell-based
T1 construct: expressed in transfected cells; host or cells: HEK293T
T1 sequence (Q13258 1-359): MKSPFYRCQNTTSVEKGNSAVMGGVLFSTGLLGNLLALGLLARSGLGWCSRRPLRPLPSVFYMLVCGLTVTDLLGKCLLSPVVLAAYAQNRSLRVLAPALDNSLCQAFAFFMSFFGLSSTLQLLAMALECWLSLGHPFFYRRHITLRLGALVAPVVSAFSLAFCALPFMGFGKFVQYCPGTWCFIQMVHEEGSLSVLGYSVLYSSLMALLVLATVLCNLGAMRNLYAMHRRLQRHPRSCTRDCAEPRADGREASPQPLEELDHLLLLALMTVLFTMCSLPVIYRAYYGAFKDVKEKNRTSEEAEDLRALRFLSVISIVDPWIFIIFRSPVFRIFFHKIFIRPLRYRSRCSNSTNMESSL
Protocol: (§2) Assay Buffer: • EP1 Calcium and DP1 cAMP Assays: HBSS plus 20 mM HEPES • EP2 and IP1 cAMP Assays: 1 mM IBMX in HBSS plus 20 mM HEPES
(§3) Cells were thawed from frozen cells and resuspended in assay buffer at desired concentrations. cAMP or Calcium assays were performed according to the manufacturer's protocol using Multiscreen™ TR-FRET cAMP 1.0 No Wash Assay Kit or Multiscreen™ Calcium 1.0 No Wash Kit.
(§4) Gas Cyclic AMP (cAMP) Assay: In agonist mode testing, cells were seeded in a 384-well plate at an appropriate density and then were treated with compounds and incubated at 37° C. for 20 minutes. The reaction was terminated by sequentially adding sequentially adding trFluor™ Eu-labeled cAMP and trFluor™ 650-labeled anti-cAMP antibody in lysis buffer. […] All testing wells contained 0.1% DMSO in the final concentrations.
(§5) Data in graphs are represented in Mean±SD. Dose-dependent responses were fitted with sigmoidal dose-response curves allowing variable slopes using GraphPad Prism version 6 (Graphpad Prism).
(§6) These studies used cell lines overexpressing either human IP, EP2 or DP1, or EP1 receptors, and following incubation with varying concentrations of compounds, cAMP levels were measured using Fluorescence Resonance Energy Transfer (FRET).

[7] = target: T2, prostaglandin I2 (PGI2) receptor (IP) (Homo sapiens, UniProt P43119); test: IP receptor cAMP assay (agonist mode); type: cell-based; details: Table 20; agonist mode; NC = too inactive to realistically calculate; * partial agonists or odd dose-response curves
T2 construct: expressed in transfected cells; host or cells: CHO-K1
T2 sequence (P43119 whole entry): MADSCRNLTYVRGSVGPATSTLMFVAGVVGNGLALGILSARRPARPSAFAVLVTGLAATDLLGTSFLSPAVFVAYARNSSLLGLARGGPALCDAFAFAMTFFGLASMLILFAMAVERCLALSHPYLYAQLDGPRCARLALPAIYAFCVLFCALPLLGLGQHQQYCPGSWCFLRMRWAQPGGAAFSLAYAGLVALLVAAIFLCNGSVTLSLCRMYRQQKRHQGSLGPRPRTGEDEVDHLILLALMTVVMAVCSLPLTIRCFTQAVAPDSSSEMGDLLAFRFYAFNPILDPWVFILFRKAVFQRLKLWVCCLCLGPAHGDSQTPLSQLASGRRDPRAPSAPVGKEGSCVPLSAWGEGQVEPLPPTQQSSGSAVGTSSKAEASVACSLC
Protocol: as §2, §3, §4, §5, §6

[8] = male, Beagle, dog, 15 min, 100 μM, pH 7.4
[9] = male, Sprague-Dawley, rat, 15 min, 100 μM, pH 7.4
[10] = both, human, 15 min, 100 μM, pH 7.4
[11] = treprostinil in plasma, single IV bolus 1 mg/kg prodrug, male rats
[12] = treprostinil in plasma, single PO 1 mg/kg prodrug, male rats
[13] = single IV bolus 1 mg/kg, male Crl:CD(SD) rats
[14] = single oral 50 mg/kg, male Crl:CD(SD) rats
[15] = single oral 50 mg/kg, male Crl:CD(SD) rats, 50 mg/kg
[16] = parent prodrug in plasma, single IV bolus 1 mg/kg, male rats
[17] = parent prodrug in plasma, single PO 1, 10 and 50 mg/kg (all PO groups), male rats
[18] = parent prodrug in plasma, single PO or IV bolus, male rats
[19] = treprostinil in plasma, male rats
[20] = treprostinil in plasma, single IV bolus 1 mg/kg prodrug, individual animals, male rats
[21] = treprostinil in plasma, single PO 10 mg/kg prodrug, male rats

O=c1ccc2ccc(O)cc2o1 [7-hydroxycoumarin, reference compound]
Formation Rate of 7-HC-G (glucuronide) [1, 8]: 114 pmol/min/10^6 cells | Formation Rate of 7-HC-S (sulfate) [1, 8]: 35.9 pmol/min/10^6 cells | Formation Rate of 7-HC-G (glucuronide) [2, 9]: 91.4 pmol/min/10^6 cells | Formation Rate of 7-HC-S (sulfate) [2, 9]: 24.7 pmol/min/10^6 cells | Formation Rate of 7-HC-G (glucuronide) [3, 10]: 97.7 pmol/min/10^6 cells | Formation Rate of 7-HC-S (sulfate) [3, 10]: 10.8 pmol/min/10^6 cells

CCCCC[C@@H](CC[C@@H]1[C@H]2Cc3cccc(OCC(=O)O)c3C[C@H]2C[C@H]1O)OC(=O)OC [Prodrug IV]
Dose proportionality of mean prodrug Cmax ([4]; parent prodrug, PO 10 to 50 mg/kg, male rats): approximately dose proportional manner | PO bioavailability (% F) of prodrug, based on mean AUCall/Dose ([4]; rat, in vivo): 1.04% | Individual AUCINF of prodrug ([4]; rat, in vivo, iv, 1 mg/kg): 41.5 to 144 ng·h/mL | Individual C0 of prodrug ([4]; rat, in vivo, iv, 1 mg/kg): 65.6 to 759 ng/mL | Individual Cl of prodrug ([4]; rat, in vivo, iv, 1 mg/kg): 115.7 to 401.67 mL/min/kg | Individual T1/2 of prodrug ([4]; rat, in vivo, iv, 1 mg/kg): 5.46 to 16.6 min | Individual Vz of prodrug ([4]; rat, in vivo, iv, 1 mg/kg): 2.69 to 3.61 L/kg | Mean AUC0-12hr of prodrug ([4]; rat, in vivo, iv, 1 mg/kg): 94.4 ng·h/mL | Mean AUCINF of prodrug ([4]; rat, in vivo, iv, 1 mg/kg): 98.7 ng·h/mL | Mean C0 of prodrug ([4]; rat, in vivo, iv, 1 mg/kg): 324 ng/mL | Mean Cl of prodrug ([4]; rat, in vivo, iv, 1 mg/kg): 223.33 mL/min/kg | Mean T1/2 of prodrug ([4]; rat, in vivo, iv, 1 mg/kg): 0.212 h | Mean Vz of prodrug ([4]; rat, in vivo, iv, 1 mg/kg): 3.15 L/kg | Prodrug quantifiable up to (time postdose) ([4]; rat, in vivo, iv, 1 mg/kg): 1 or 2 hours | Prodrug quantifiable up to (time postdose) ([4]; rat, in vivo, po, 10 mg/kg): 1 h | AUCINF of prodrug (single animal) ([4]; rat, in vivo, po, 50 mg/kg): 65.4 ng·h/mL | Cl/F of prodrug (single animal) ([4]; rat, in vivo, po, 50 mg/kg): 12733.3 mL/min/kg | Individual AUC0-24hr of prodrug ([4]; rat, in vivo, po, 50 mg/kg): 49.2 ng·h/mL | Prodrug quantifiable up to (time postdose) ([4]; rat, in vivo, po, 50 mg/kg): 1, 2, 8, or 12 hours | T1/2 of prodrug (single animal) ([4]; rat, in vivo, po, 50 mg/kg): 4.27 h | Vz/F of prodrug (single animal) ([4]; rat, in vivo, po, 50 mg/kg): 4710 L/kg | Test article-related (adverse) clinical observations ([5]; rat, in vivo, iv, 1 mg/kg): adverse clinical observations | Test article-related (adverse) clinical observations ([5]; rat, in vivo, po, 50 mg/kg): adverse clinical observations

CCCCC[C@H](O)CC[C@@H]1[C@H]2Cc3cccc(OCC(=O)O)c3C[C@H]2C[C@H]1OC [Prodrug LXIII, treprostinil cyclopentyl methyl ether]
EC50 Fold Different from Treprostinil, DP1 Receptor ([6]; Table 20, agonist mode, NC = too inactive to realistically calculate, * partial agonists or odd dose-response curves): 217x* | EC50 Fold Different from Treprostinil, IP Receptor [7]: 208x

CCCCC[C@@H](CC[C@@H]1[C@H]2Cc3cccc(OCC(=O)O)c3C[C@H]2C[C@H]1O)OP(=O)(O)O [Prodrug VI, treprostinil side chain phosphate]
Treprostinil Concentration, 0 min [1]: 0.0124 µM | Treprostinil Concentration, 15 min [1]: 0.581 µM | Treprostinil Concentration, 30 min [1]: 0.609 µM | Treprostinil Concentration, 60 min [1]: 0.533 µM | Treprostinil Concentration, 120 min [1]: 0.548 µM | T1/2 of prodrug (single animal) ([4]; parent prodrug, single PO 50 mg/kg, single animal, male rats): 1.76 h | Prodrug plasma concentrations ([4]; rat, in vivo, iv, 1 mg/kg): BLQ | Prodrug plasma concentrations (BQL) ([4]; rat, in vivo, iv, 1 mg/kg): < 1.00 ng/mL | Prodrug plasma concentrations ([4]; rat, in vivo, po, 1 mg/kg): BLQ | Prodrug plasma concentrations ([4]; rat, in vivo, po, 10 mg/kg): BLQ | AUCINF of prodrug (single animal) ([4]; rat, in vivo, po, 50 mg/kg): 28.2 ng·h/mL | Mean AUC0-24hr of prodrug ([4]; rat, in vivo, po, 50 mg/kg): 242 ng·h/mL | Prodrug quantifiable up to (time postdose) ([4]; rat, in vivo, po, 50 mg/kg): 2, 4, 8, or 24 hours | Mean T1/2 of treprostinil [4, 11]: 1.90 h | Mean Cl/F of treprostinil [4, 12]: 448.33 mL/min/kg | Mean T1/2 of treprostinil [4, 12]: 14.0 h | Treprostinil Concentration, 0 min [2]: 0.128 µM | Treprostinil Concentration, 15 min [2]: 0.693 µM | Treprostinil Concentration, 30 min [2]: 0.635 µM | Treprostinil Concentration, 60 min [2]: 0.564 µM | Treprostinil Concentration, 120 min [2]: 0.53 µM | Activity, DP1 Relative to Tre ([6]; Table 24, relative to treprostinil EC50 values, * partial agonists or ambiguous dose-response curves, image character = too high to realistically calculate): 2x | Treprostinil Concentration, 0 min [3]: 0 µM | Treprostinil Concentration, 15 min [3]: 0.223 µM | Treprostinil Concentration, 30 min [3]: 0.365 µM | Treprostinil Concentration, 60 min [3]: 0.466 µM | Treprostinil Concentration, 120 min [3]: 0.540 µM | Test article-related (adverse) clinical observations [5, 13]: adverse clinical observations | Test article-related (adverse) clinical observations [5, 14]: adverse clinical observations | Mortality [5, 15]: found dead; also recorded: lethality

CCCCC[C@@H](CC[C@@H]1[C@H]2Cc3cccc(OCC(=O)O)c3C[C@H]2C[C@H]1O)OC(=O)OCC [Prodrug XVI, treprostinil side chain ethyl carbonate]
Prodrug plasma concentrations [4, 16]: BLQ | Prodrug plasma concentrations [4, 17]: BLQ | Prodrug plasma concentrations (BQL) [4, 18]: < 1.00 ng/mL | Dose proportionality of mean treprostinil Cmax and AUC0-24hr [4, 19]: less than dose proportional manner | Individual AUCINF of treprostinil [4, 20]: 183 ng·h/mL | Individual Cl of treprostinil [4, 20]: 91.17 mL/min/kg | Individual Vz of treprostinil [4, 20]: 5.7 L/kg | Individual T1/2 of treprostinil ([4]; treprostinil in plasma, single IV bolus 1 mg/kg prodrug, individual animals, male rats, 1 mg/kg): 0.722 h and 1.10 h | Mean AUC0-12hr of treprostinil [4, 11]: 192 ng·h/mL | Mean C0 of treprostinil [4, 11]: 549 ng/mL | Mean Cmax of treprostinil [4, 11]: 263 ng/mL | Mean T1/2 of treprostinil [4, 11]: 0.912 h | Treprostinil quantifiable up to (time postdose) [4, 11]: 2 h | Individual AUC0-12hr of treprostinil ([4]; treprostinil in plasma, single IV bolus 1 mg/kg prodrug, male rats, 1 mg/kg): 171 ng·h/mL and 214 ng·h/mL | Treprostinil quantifiable up to (time postdose) [4, 21]: 24 h | Treprostinil quantifiable up to (time postdose) ([4]; treprostinil in plasma, single PO 50 mg/kg prodrug, male rats): 24 h | PO bioavailability (% F) of treprostinil, based on mean AUCall/Dose ([4]; PO 1 mg/kg prodrug vs IV bolus 1 mg/kg prodrug, male rats, 1 mg/kg): 5.94% and 7.74% | PO bioavailability (% F) of treprostinil, based on mean AUCall/Dose ([4]; PO 10 mg/kg prodrug vs IV bolus 1 mg/kg prodrug, male rats): 6.35% and 3.17% | PO bioavailability (% F) of treprostinil, based on mean AUCall/Dose ([4]; PO 50 mg/kg prodrug vs IV bolus 1 mg/kg prodrug, male rats): 4.13% and 3.72% | Test article-related (adverse) clinical observations [5, 13]: adverse clinical observations | Mortality [5, 14]: found dead | Test article-related (adverse) clinical observations [5, 14]: adverse clinical observations

CCCCC[C@@H](CC[C@@H]1[C@H]2Cc3cccc(OCC(=O)O)c3C[C@H]2C[C@H]1O)OC(=O)OC(C)C [Prodrug XVII, treprostinil side chain isopropyl carbonate]
Prodrug plasma concentrations [4, 16]: BLQ | Prodrug plasma concentrations [4, 17]: BLQ | Prodrug plasma concentrations (BQL) [4, 18]: < 1.00 ng/mL | Dose proportionality of mean treprostinil Cmax and AUC0-24hr [4, 19]: less than dose proportional manner | Mean AUC0-12hr of treprostinil [4, 11]: 274 ng·h/mL | Mean C0 of treprostinil [4, 11]: 1350 ng/mL | Mean Cmax of treprostinil [4, 11]: 466 ng/mL | Treprostinil quantifiable up to (time postdose) [4, 21]: 24 h | Test article-related (adverse) clinical observations [5, 13]: adverse clinical observations | Test article-related (adverse) clinical observations [5, 14]: adverse clinical observations | Mortality [5, 15]: found dead; also recorded: lethality
